Experiment: Stability of the active substance throughout the process by high performance liquid chromatography
Format: physicochemical
Settings: HPLC; purity/titre and related substance profile compared with the starting product, both tests

- stability throughout the process: good stability
SMILES: CO[C@H]1C[C@@H]2CC[C@@H](C)[C@@](O)(O2)C(=O)C(=O)N2CCCC[C@H]2C(=O)O[C@H]([C@H](C)C[C@@H]2CC[C@@H](O)[C@H](OC)C2)CC(=O)[C@H](C)/C=C(\C)[C@@H](O)[C@@H](OC)C(=O)[C@H](C)C[C@H](C)/C=C/C=C/C=C/1C [sirolimus]
